From patent US7872005B2, “2-substituted heteroaryl compounds” (Synta Pharmaceuticals Corporation, priority 2004, dated 2011)

System: IL-12 production in human PBMC or THP-1 cells
Assay: In vitro inhibition of IL-12 production in stimulated human PBMC or THP-1 cells (ELISA)
Assay type: cell-based
Details: representative in vitro IC50 data
Source text: The biological activities of a heterocyclic compound can be evaluated by a number of cell-based assays. One of such assays can be conducted using cells from human peripheral blood mononuclear cells (PBMC) or human monocytic cell line (THP-1). The cells are stimulated with a combination of human interferon-γ (IFNγ) and lipopolysaccharide or a combination of IFNγ and Staphylococcus aureus Cowan I in the presence of a test compound. The level of inhibition of IL-12 production can be measured by determining the amount of p70 by using a sandwich ELISA assay with anti-human IL-12 antibodies. IC50 of the test compound can then be determined. Specifically, PBMC or THP-1 cells are incubated with the test compound. Cell viability was assessed using the bioreduction of MTS [3-(4,5-dimethylthiazol-2-yl)-5-(3-carboxymethoxyphenyl)-2-(4-sulfophenyl)-2H-tetrazolium] (Promega, Madison, Wis.).
Reagents. Staphylococcus aureus Cowan I (SAC) was obtained from Calbiochem (La Jolla, Calif.), and lipopolysaccharide (LPS, Serratia marscencens) was obtained from Sigma (St. Louis, Mo.). Human and mouse recombinant IFNγ were purchased from Boehringer Mannheim (Mannheim, Germany) and Pharmingen (San Diego, Calif.), respectively.
Human In Vitro Assay. Human PBMC were isolated by centrifugation using Ficoll-Paque (Pharmacia Biotech, Uppsala, Sweden) and prepared in RPMI medium supplemented with 10% fetal calf serum (FCS), 100 U/mL penicillin, and 100 μg/mL streptomycin. PBMC were plated in wells of a 96-well plate at a concentration of 5×10^5 cells/well, and primed by adding IFNγ (30 U/mL) for 22 h and stimulated by adding LPS (1 μg/mL), or by adding IFNγ (100 U/mL) and then stimulated by adding SAC (0.01%). A test pyrimidine compound was dissolved in DMSO, and added to wells of the 96-well plate. The final DMSO concentration was adjusted to 0.25% in all cultures, including the compound-free control. Human THP-1 cells were plated in wells, primed by adding IFNγ (100 U/mL) for 22 h and stimulated by adding SAC (0.025%) in the presence of different concentrations of the pyrimidine compound. Cell-free supernatants were taken 18 h later for measurement of cytokines. Cell viability was assessed using the bioreduction of MTS. Cell survival was estimated by determining the ratio of the absorbance in compound-treated groups versus compound-free control.
The supernatant was assayed for the amount of IL-12p40, IL-12p70, or IL-10 by using a sandwich ELISA with anti-human antibodies, i.e., a Human IL-12 p40 ELISA kit from R&D Systems (Berkeley, Calif.), and a Human IL-12 p70 or IL-10 ELISA kit from Endogen (Cambridge, Mass.). Assays were based on the manufacturer's instructions.
The biological activities of pyrimidine compounds were tested on human PBMC or THP-1 cells. Unexpectedly, some of the test compounds have IC50 values as low as <1 nM.

## Cc1cccc(/C=N/Nc2cc(N3CCOCC3)nc(CCOC(=O)Nc3cccc(C(F)(F)F)c3)n2)c1 [Compound 12, (3-Trifluoromethyl-phenyl)-carbamic acid 2-{4-[N′-(3-methyl-benzylidene)-hydrazino]-6-morpholin-4-yl-pyrimidin-2-yl}-ethyl ester]
  IC50: < 25 nM
